Data reported in patent US9355787B2, “Method of forming rigid imide material from soluble amide ester functionalized precursors” (Colorado School of Mines, priority 2013, dated 2016).

Experiment: Qualitative solubility of diester-diacid monomers in organic solvents

Row | Compound | Solubility of monomer or dianhydride, in words
1 | CCCCC(CC)COC(=O)c1ccc2c3ccc(C(=O)O)c4c(C(=O)OCC(CC)CCCC)ccc(c5ccc(C(=O)O)c1c52)c43 (stereo not drawn) [Monomer 2d, di-2-ethy hexyl ester of perylene-3,4,9,10 tetracarboxylic acid] | soluble in polar aprotic solvents like NMP, and DMSO
2 | di-methyl ester of NTDA [Monomer 1a] | soluble in most of the organic solvents
3 | O=C1OC(=O)c2ccc3c4ccc5c6c(ccc(c7ccc1c2c73)c64)C(=O)OC5=O [PTDA, 3,4,9,10-perylenetetracarboxylic dianhydride] | insoluble in all solvents
4 | di-ethyl ester of NTDA [Monomer 1b] | soluble in most of the organic solvents
5 | di-hexyl ester of NTDA [Monomer 1c] | soluble in most of the organic solvents
6 | CCCCCCOC(=O)c1ccc2c3ccc(C(=O)O)c4c(C(=O)OCCCCCC)ccc(c5ccc(C(=O)O)c1c52)c43 [Monomer 2c, di-N-hexyl ester of perylene-3,4,9,10 tetracarboxylic acid] | soluble in polar aprotic solvents like NMP, and DMSO
